According to patent US11808760B1, “System and methods for in vitro structural toxicity testing” (CURI BIO, INC., priority 2019, dated 2023):

How the values were obtained:
[1] = system: liver cells
[2] = system: liver cells; assay: AI (CNN) structural toxicity assay, aspirin on liver cells (FIG. 6); type: cell-based
Source text: In an exemplary embodiment of the subject technology, a series of 2-class neural network training steps may be used, where a separate model is created for each drug dose compared to its control. As will be appreciated, a high level of sensitivity in detecting structural changes will be generated. As a result, aspects of the subject technology successfully capture obvious phenotypes, such as cell damage and death, as well as subtle phenotypes, such as changes to sarcomere organization or distribution of mitochondria.
As detailed in the following sections, the input imaging data is processed and may be augmented before training deep neural networks. For each test condition, images from a well are dedicated for validation and the rest are used for training. The performance of each training may be used on the validation wells as the measure of structural change. […] One the other hand, if the achieved accuracy is high, it means that the trained neural network was able to differentiate between the drug-treated images at dose i versus the vehicle images, and the strength of the change is calculated from the distribution of class probabilities.
A 2-class deep neural network may be trained (530) for image classification. The higher layers of the neural network may be allowed to learn the image features. […]

[3] = system: iPSC-derived hepatocytes; assay: AI (CNN) structural toxicity assay, validation z-factor versus dose (FIG. 7); type: cell-based; settings: reference vehicle (DMSO), doses 0.01-30 uM, 18-layer residual network
Method: When using multi-channel images, the channels may include brightfield images, and fluorescence images captured at different wavelengths in order to visualize different cellular structures. As one example of an experimental setup, the cells are iPSC-derived hepatocytes, the drug under investigation is tamoxifen (a drug with known liver toxicity), dose X is 0.01 uM, dose Y is 0.10 uM, dose Z is 1.00 uM, the cells are fixed and stained with phalloidin-conjugated fluorescent dyes, and the imaging is performed with an inverted fluorescence microscopy system, capturing multiple images at each individual well.
A 2-class deep neural network may be trained (530) for image classification. The higher layers of the neural network may be allowed to learn the image features. The training may be performed with an initial learning rate of 0.01 for 20 epochs and may be repeated three times. For each training session, the final neural network may be selected from the epoch with the highest validation accuracy.
To generate the input data to train the neural network, each image may be processed and augmented. […]

Structure (SMILES) | structural damage of liver cells over time [1] | structural changes in the cells [2] | dose at which validation z-factors show values above -1 (start of structural changes between drug-treated cells and reference cells) [3]
CC(=O)N[C@@H](CS)C(=O)O [acetylcysteine] | little damage to the cells | – | –
COc1cccc2c1C(=O)c1c(O)c3c(c(O)c1C2=O)C[C@@](O)(C(=O)CO)C[C@@H]3O[C@H]1C[C@H](N)[C@H](O)[C@H](C)O1 [doxorubicin] | changes in the structural integrity of the cells | – | –
CC(=O)Oc1ccccc1C(=O)O [aspirin] | – | no, or minimal, structural changes | –
CC/C(=C(\c1ccccc1)c1ccc(OCCN(C)C)cc1)c1ccccc1 [tamoxifen] | noticeable structural damage | – | 5 µM
